Laboratory results from patent US20260125387A1, “(R)-N-ETHYL-5-FLUORO-N-ISOPROPYL-2-((5-(2-(6-((2-METHOXYETHYL)(METHYL)AMINO)-2-METHYLHEXAN-3-YL)-2,6-DIAZASPIRO[3.4]OCTAN-6-YL)-1,2,4-TRIAZIN-6-YL)OXY)BENZAMIDE BESYLATE SALT” (Janssen Pharmaceutica NV, priority 2021, published 2026).
Counter-ions that a name gives are not always drawn.

How the values were obtained:
KO-52 cells = test: Proliferation assay (spheroid, day 8 confluence), KO-52 control cell line; format: cell-based; details: Homo sapiens; 8 days; read-out: spheroid assay_OneTime KO-52 IC50
Experimental: The anti-proliferative effect of menin/MLL protein/protein interaction inhibitor test compounds was assessed in human leukemia cell lines. The cell line MOLM-14 harbors a MLL translocation and expresses the MLL fusion protein MLL-AF9, respectively, as well as the wildtype protein from the second allele. OCI-AML3 cells that carry the NPM1c gene mutation were also tested. […] KO-52 was used as a control cell line containing two MLL (KMT2A) wildtype alleles in order to exclude compounds that display general cytotoxic effects.
KO-52 and OCI-AML3 cell lines were propagated in alpha-MEM (Sigma Aldrich) supplemented with 20% heat-inactivated fetal bovine serum (HyClone), 2 mM L-glutamine (Sigma Aldrich) and 50 μg/ml gentamycin (Gibco).
In order to assess the anti-proliferative effects, 200 MOLM-14 cells, 200 OCI-AML3 cells or 300 KO-52 cells were seeded in 200 μl media per well in 96-well round bottom, ultra-low attachment plates (Costar, catalogue number 7007). […] Spheroid like growth was measured in real-time by live-cell imaging (IncuCyteZOOM, Essenbio, 4× objective) acquiring images at day 8. Confluence (%) as a measure of spheroid size was determined using an integrated analysis tool.
In order to determine the effect of the test compounds over time, the confluence in each well as a measure of spheroid size, was calculated. […]

MOLM-14 cells = test: Proliferation assay (spheroid, day 8 confluence), MOLM-14; format: cell-based; details: Homo sapiens, 8 days, read-out: spheroid assay_OneTime MOLM-14 IC50
[1] = Stability experiments under stress conditions (UHPLC purity, XRD); format: physicochemical; details: for XRD after stress: Reference Crystalline, form A
[2] = test system: human pluripotent stem cell-derived cardiomyocytes (iCell Cardiomyocytes2); test: Ca2+-fluorescence assay in hSC-derived cardiomyocytes (CTCM human), hazard scoring; format: cell-based; parameters: key to Hazard scoring, Color @ 0.1 μM / Hazard scoring, Color @ 0.2 μM / Hazard scoring, Color @ 0.5 μM / Hazard scoring, Color @ 1 μM / Hazard scoring, Color @ 2.5 μM / Hazard scoring, Color @ 5 μM / Hazard scoring, Color @ 0.3 μM / Hazard scoring, Color @ 3 μM / Hazard scoring, Color @ 10 μM: Green: No concern; Yellow: Low concern; Red: High concern; Black: Very high concern due to arrhythmic events
Experimental: 7) Cardio-Electrophysiological Effects of the Testing Compounds in Synchronously Beating Human Pluripotent Stem Cell-Derived Cardiomyocytes (hSC-CMs) Using a Ca^2+-Fluorescence Assay (CTCM human)
Compounds were tested in the 96-well plates.
Compounds were tested at 0.1 μM, 0.2 μM, 0.5 μM, 1 μM, 2.5 μM and 5 μM (n=4 per dose) on Cor.4U®-Cardiomyocytes or on iCell® Cardiomyocytes2.
Alternatively, compounds were tested at 0.1 μM, 0.3 μM; 1 μM, 3 μM, 10 μM and 30 μM (n=4 per dose) mostly on iCell® Cardiomyocytes2.
Vehicle control: Dimethylsulfoxide (DMSO). The solutions of the compound in DMSO or its solvent (final concentration of 0.1% DMSO; n=8).
Tested compounds were dissolved in DMSO at 1000-fold the intended concentrations. A compound “mother-plate” was made, containing the test compounds and positive and negative controls at 1000-fold the final concentrations. At the experiment day, these stock solutions were diluted with Tyrode (Sigma), supplemented with 10 mM HEPES (Gibco), to 2-fold the intended concentration (in round bottom compound plates). Final DMSO concentration in test solutions and vehicle control was 0.1%.
hSC-CMs (Cor.4U® Cardiomyocytes) were obtained from CDI (Ncardia, Germany). Cells are pre-plated and seeded in fibronectin-coated 96-well plates at a density suited to form a monolayer and maintained in culture in a stage incubator (37° C., 5% CO2), according to the instructions of the cell provider.
Second line hSC derived cardiomyocyte called iCell® Cardiomyocytes2 were purchased from FUJIFILM Cellular Dynamics (USA). The experiments with test drugs are carried out 5 to 7 days after plating the cells onto the plate to have a living, beating monolayer of hiPSC-derived cardiomyocytes. The beating monolayer in 96-well-plates are normally taken from 2 Vials of frozen iCell® Cardiomyocytes2 (≈5 million cells/vial), which will be plated onto three 96-well plates (≈50K/well).
At least one hour before the start of the experiments the normal cell medium was replaced with Tyrode solution with Calcium dye (see below).
Cal 520 dye (AAT Bioquest) was dissolved in 11 ml of Tyrode supplemented with 10 mM HEPES and warmed up to 37 C before adding to the cells.
35 μl cell culture medium was removed from each well and replaced with 35 μl of pre-warmed Cal 520 dye solution and cell plate was incubated for 45 min at 37° C./5% CO2. Cells were incubated for 5 min at 37° C.
Spontaneous electrical activity is recorded, using Cal520™ (AAT Bioquest) calcium fluorescence-dye signaling. This dye integrates the total intracellular calcium activity over the whole well. A bottle of Cal520 dye (50 μg, MW: 1103/mol) is dissolved with 50 μl DMSO as a stock solution of 0.9 mM. 50 μL of the stock solution of the dye was added to 10 ml Tryodes solution to have dye concentration of 4.5 μM. Subsequently, 35 μl of this dye solution was added into each well, to have a final dye concentration of 1.58 μM. The current dye protocol on this CTCM human assay was established recently (Ivan Kopljar et al, Journal of Pharmacological and toxicological methods 2018. 91: 80-86; Lu et al., Tox Sci 2019. 170 (2): 345-356).
Fluorescent signals (Ca^2+ transient morphology) were measured using the Functional Drug Screen System (FDSS/pCell; Hamamatsu, Japan) and the recordings were subsequently analyzed off-line, using appropriate software e.g. Notocord.
The cell plate was loaded into the FDSS/pCell for a test run: Ca^2+ transients were measured for 4 minutes to check for synchronous beating of the cardiomyocytes in each well. All 96 wells were measured simultaneously (sampling interval: 0.06 s, short exposure time: 10 ms; excitation wavelength 480 nm; emission wavelength 540 nm; FDSS/pCell warmed to 37° C.).
During the compound addition step, 100 μl of the respective double-concentrated test solutions was pipetted into each well simultaneously.
Data were analyzed off-line using appropriate software e.g. Notocord-Hem (version 4.3). […]

[3] = test system: OCI-AML3 tumors (disseminated, IV); test: Efficacy study in disseminated OCI-AML3 model (survival); format: in vivo, mouse; details: vehicle control 38.5 days
Experimental: Doses were adjusted by individual body weight each day.
Female SCID beige mice (CB17.Cg-PrkdcscidLystbg-J/Crl/−) were used when they were approximately 6 to 8 weeks of age and weighed approximately 25 g. All animals could acclimate and recover from any shipping-related stress for a minimum of 7 days prior to experimental use. Autoclaved water and irradiated food were provided ad libitum, and the animals were maintained on a 12 hour light and dark cycle. Cages, bedding, and water bottles were autoclaved before use and changed weekly. The tissue culture and cell injection reagents are summarized below in Table 14.
Human AML cell line OCI-AML3 was cultured at 37° C., 5% CO2 in the indicated complete culture media (MEM Alpha+20% HI—FBS (Heat-Inactivated Fetal Bovine Serum)+2 mM L-glutamine+50 ug/ml Gentamycin). […]
Animals were monitored daily for clinical signs related to either compound toxicity or tumor burden (i.e., hind limb paralysis, lethargy, etc.).
Median survival was determined utilizing Kaplan-Meier survival analysis. […]
Statistical significance for body weights was evaluated as described above. Statistical significance was evaluated for Kaplan-Meier survival plots comparing therapeutic treatment group vs. appropriate vehicle-treated control using log-rank (Mantel-Cox) test in R software version 3.4.2. […]

[4] = iCell Cardiomyocytes2, 30 min incubation
[5] = efficacious dose in mouse xenograft models of 30 mpk, (mouse, human)

## CCN(C(=O)c1cc(F)ccc1Oc1nncnc1N1CCC2(C1)CN([C@H](CCCN(C)CCOC)C(C)C)C2)C(C)C [Compound A4, (R)—N-ethyl-5-fluoro-N-isopropyl-2-((5-(2-(6-((2-methoxyethyl)(methyl)amino)-2-methylhexan-3-yl)-2,6-diazaspiro[3.4]octan-6-yl)-1,2,4-triazin-6-yl)oxy)benzamide bis-besylate salt hydrate]
KO-52 cells
  IC50: 5.44 µM
MOLM-14 cells
  IC50: 8 nM
[1]; 50° C./10% RH, 7 days, Reference 99.65
  Besylate salt Purity after stress: 99.64
[1]; 50° C./10% RH, 14 days, Reference 99.65
  Besylate salt Purity after stress: 99.62
[1]; 50° C./30% RH, 21 days, Reference 99.21
  Besylate salt Purity after stress: 99.32
[1]; 50° C./30% RH, 21 days
  XRD after stress: Complies to ref
[1]; 50° C./50% RH, 7 days, Reference 99.65
  Besylate salt Purity after stress: 99.65
[1]; 50° C./50% RH, 14 days, Reference 99.65
  Besylate salt Purity after stress: 99.66
[1]; 50° C./75% RH, 21 days, Reference 99.21
  Besylate salt Purity after stress: 99.36
[1]; 50° C./75% RH, 21 days
  XRD after stress: Complies to ref
[1]; under evaluated stress conditions
  chemical and physical stability (UHPLC, XRD): chemically and physically stable

## CCN(C(=O)c1cc(F)ccc1Oc1nncnc1N1CCC2(C1)CN([C@H](CCCN(C)CCOC)C(C)C)C2)C(C)C [Compound A3, (R)—N-ethyl-5-fluoro-N-isopropyl-2-((5-(2-(6-((2-methoxyethyl) (methyl)amino)-2-methylhexan-3-yl)-2,6-diazaspiro[3.4]octan-6-yl)-1,2,4-triazin-6-yl)oxy) benzamide oxalate]
[2]; [4]
  Hazard scoring, Color @ 0.1 μM: Green
  Hazard scoring, Color @ 1 μM: Green
[2]; 0.2 μM, iCell Cardiomyocytes2, 30 min incubation
  Hazard scoring, Color @ 0.2 μM: Green
[2]; 0.5 μM, iCell Cardiomyocytes2, 30 min incubation
  Hazard scoring, Color @ 0.5 μM: Green
[2]; 2.5 μM, iCell Cardiomyocytes2, 30 min incubation
  Hazard scoring, Color @ 2.5 μM: Green
[2]; 5 μM, iCell Cardiomyocytes2, 30 min incubation
  Hazard scoring, Color @ 5 μM: Green
[3]; 30 mg/kg PO daily for 28 days
  median days of survival: 75.5 days
[3]; 50 mg/kg PO daily for 28 days
  median days of survival: 58.5 days

## CCN(C(=O)c1cc(F)ccc1Oc1nncnc1N1CCC2(C1)CN([C@H](CCCN(C)CCOC)C(C)C)C2)C(C)C [Compound A1, (R)—N-ethyl-5-fluoro-N-isopropyl-2-((5-(2-(6-((2-methoxyethyl)(methyl)-amino)-2-methylhexan-3-yl)-2,6-diazaspiro[3.4]octan-6-yl)-1,2,4-triazin-6-yl)oxy)-benzanilide 0.2 HCl·x H2O (x=2-3)]
[2]; [4]
  Hazard scoring, Color @ 0.1 μM: Green
  Hazard scoring, Color @ 1 μM: Green
[2]; 0.3 μM, iCell Cardiomyocytes2, 30 min incubation
  Hazard scoring, Color @ 0.3 μM: Green
[2]; 3 μM, iCell Cardiomyocytes2, 30 min incubation
  Hazard scoring, Color @ 3 μM: Green
[2]; 10 μM, iCell Cardiomyocytes2, 30 min incubation
  Hazard scoring, Color @ 10 μM: Green
[2]; 30 μM, iCell Cardiomyocytes2, 30 min incubation
  Hazard scoring, Color @ 30 μM: yellow
[2]; [5]
  Margin CTCM human 10 μM vs free Cmax: > 16
  Margin CTCM human 30 μM vs free Cmax: > 45
